Experimental data reported in ChEMBL document CHEMBL5696442, “Discovery of type II inhibitors of TGFβ-activated kinase 1 (TAK1) and mitogen-activated protein kinase kinase kinase kinase 2 (MAP4K2)” (J Med Chem, 2015).

Assays:
[1] = target: eIF-2-alpha kinase GCN2 (Homo sapiens) (UniProt Q9P2K8); test: Inhibition of GCN2 domain2 Lys1 labeling site in human A-375 cells at 0.05 uM by KiNativ Profiling analysis relative to control; format: cell-based
[2] = target: T1, Mitogen-activated protein kinase kinase kinase 15 (Homo sapiens) (UniProt Q6ZN16); test: Inhibition of MAP3K15 (unknown origin) at 1 uM by Ambit Kinomescan binding assay relative to control; values are per cent of control
T1 sequence (whole entry): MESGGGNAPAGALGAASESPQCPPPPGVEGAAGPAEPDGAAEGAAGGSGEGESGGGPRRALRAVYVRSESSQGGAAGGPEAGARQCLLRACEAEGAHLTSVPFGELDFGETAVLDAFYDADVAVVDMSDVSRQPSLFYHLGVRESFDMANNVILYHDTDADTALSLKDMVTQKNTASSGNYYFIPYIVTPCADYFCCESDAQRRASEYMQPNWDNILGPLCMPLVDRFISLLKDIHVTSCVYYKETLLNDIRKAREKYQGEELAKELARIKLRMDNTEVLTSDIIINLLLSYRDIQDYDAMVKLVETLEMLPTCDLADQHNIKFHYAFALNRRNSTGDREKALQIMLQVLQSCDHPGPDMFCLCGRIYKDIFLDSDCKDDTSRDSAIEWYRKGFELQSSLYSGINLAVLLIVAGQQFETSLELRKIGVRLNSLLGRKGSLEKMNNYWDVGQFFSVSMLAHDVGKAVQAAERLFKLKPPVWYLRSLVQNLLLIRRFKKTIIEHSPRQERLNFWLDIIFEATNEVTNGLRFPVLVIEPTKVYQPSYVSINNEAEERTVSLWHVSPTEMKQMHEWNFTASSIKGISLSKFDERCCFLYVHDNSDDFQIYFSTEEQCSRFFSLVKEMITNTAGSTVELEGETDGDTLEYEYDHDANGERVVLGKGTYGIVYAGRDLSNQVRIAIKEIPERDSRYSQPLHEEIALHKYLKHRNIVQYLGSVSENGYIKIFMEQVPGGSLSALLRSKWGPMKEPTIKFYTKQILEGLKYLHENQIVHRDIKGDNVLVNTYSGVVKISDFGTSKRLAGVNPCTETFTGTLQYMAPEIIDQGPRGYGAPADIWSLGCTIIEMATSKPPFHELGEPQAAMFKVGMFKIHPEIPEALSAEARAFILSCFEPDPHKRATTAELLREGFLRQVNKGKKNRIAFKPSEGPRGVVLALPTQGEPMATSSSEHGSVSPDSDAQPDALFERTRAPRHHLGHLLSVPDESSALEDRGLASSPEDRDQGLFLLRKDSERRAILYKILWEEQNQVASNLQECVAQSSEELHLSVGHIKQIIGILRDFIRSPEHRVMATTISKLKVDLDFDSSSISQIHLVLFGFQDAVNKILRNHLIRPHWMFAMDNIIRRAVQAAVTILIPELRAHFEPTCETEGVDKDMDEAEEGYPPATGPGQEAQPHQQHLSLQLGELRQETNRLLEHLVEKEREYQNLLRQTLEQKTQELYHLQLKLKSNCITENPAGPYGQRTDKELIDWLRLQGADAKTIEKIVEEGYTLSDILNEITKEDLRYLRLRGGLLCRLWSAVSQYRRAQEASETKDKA

[3] = target: T2, Mitogen-activated protein kinase kinase kinase 6 (Homo sapiens) (UniProt O95382); test: Inhibition of MAP3K6 Lys1 labeling site harbouring IAIKEIPER in human A-375 cells at 5 uM by KiNativ Profiling analysis relative to control; format: cell-based
T2 sequence (whole entry): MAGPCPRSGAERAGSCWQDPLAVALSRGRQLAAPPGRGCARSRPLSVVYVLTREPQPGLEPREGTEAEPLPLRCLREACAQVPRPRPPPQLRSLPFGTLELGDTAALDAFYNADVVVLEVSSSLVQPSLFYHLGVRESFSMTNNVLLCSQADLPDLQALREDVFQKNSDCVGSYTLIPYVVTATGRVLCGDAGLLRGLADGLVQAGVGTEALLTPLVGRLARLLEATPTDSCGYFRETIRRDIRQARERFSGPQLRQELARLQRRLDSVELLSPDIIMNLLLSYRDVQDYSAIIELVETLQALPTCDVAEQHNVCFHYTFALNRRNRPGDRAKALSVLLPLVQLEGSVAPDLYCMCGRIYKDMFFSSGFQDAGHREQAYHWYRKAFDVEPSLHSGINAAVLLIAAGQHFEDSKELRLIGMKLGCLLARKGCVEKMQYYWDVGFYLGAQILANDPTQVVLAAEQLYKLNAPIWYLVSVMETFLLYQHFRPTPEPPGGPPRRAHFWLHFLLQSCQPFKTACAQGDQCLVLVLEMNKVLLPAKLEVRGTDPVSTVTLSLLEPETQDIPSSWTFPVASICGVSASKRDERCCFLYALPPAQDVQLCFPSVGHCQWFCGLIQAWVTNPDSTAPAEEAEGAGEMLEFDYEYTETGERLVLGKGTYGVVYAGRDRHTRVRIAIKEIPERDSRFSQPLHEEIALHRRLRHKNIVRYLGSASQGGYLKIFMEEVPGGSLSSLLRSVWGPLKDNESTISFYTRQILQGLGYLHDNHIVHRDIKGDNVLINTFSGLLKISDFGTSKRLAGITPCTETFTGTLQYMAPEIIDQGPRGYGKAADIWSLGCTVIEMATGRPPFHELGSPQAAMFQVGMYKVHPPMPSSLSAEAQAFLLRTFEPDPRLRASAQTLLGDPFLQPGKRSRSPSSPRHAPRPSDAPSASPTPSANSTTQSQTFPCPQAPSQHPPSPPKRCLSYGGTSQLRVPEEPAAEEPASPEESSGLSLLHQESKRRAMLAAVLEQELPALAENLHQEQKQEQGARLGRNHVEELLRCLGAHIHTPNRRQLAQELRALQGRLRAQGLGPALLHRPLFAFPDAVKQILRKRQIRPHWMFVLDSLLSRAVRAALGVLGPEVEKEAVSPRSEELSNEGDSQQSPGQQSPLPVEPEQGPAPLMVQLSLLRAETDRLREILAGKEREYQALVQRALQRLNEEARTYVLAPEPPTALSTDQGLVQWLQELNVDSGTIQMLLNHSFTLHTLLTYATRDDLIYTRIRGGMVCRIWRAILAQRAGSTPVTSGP

[4] = target: Cyclin-dependent kinase 17 (Homo sapiens) (UniProt Q00537); test: Inhibition of PCTAIRE2 K2 labeling site in human Huh-7 cells at 1 uM by KiNativ Profiling analysis relative to control; format: cell-based
Sequence of Cyclin-dependent kinase 17 (Homo sapiens) (Q00537 whole entry, looked up): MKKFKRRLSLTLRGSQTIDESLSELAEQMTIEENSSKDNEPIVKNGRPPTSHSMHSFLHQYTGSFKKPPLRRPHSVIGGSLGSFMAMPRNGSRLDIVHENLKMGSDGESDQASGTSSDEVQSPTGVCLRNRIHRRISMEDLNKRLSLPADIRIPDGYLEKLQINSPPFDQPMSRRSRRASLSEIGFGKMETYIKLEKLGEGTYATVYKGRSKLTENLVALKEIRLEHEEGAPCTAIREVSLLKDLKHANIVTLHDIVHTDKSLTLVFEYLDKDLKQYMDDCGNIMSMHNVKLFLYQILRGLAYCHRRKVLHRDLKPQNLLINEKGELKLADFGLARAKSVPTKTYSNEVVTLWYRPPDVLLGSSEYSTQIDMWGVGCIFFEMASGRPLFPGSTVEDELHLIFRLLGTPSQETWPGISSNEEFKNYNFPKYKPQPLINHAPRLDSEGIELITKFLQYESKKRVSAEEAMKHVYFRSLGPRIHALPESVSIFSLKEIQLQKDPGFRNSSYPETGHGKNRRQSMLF

[5] = target: Vascular endothelial growth factor receptor 1 (Homo sapiens) (UniProt P17948); test: Inhibition of FLT1 (unknown origin) at 10 uM by Ambit Kinomescan binding assay relative to control; values are per cent of control
Sequence of Vascular endothelial growth factor receptor 1 (Homo sapiens) (P17948 whole entry): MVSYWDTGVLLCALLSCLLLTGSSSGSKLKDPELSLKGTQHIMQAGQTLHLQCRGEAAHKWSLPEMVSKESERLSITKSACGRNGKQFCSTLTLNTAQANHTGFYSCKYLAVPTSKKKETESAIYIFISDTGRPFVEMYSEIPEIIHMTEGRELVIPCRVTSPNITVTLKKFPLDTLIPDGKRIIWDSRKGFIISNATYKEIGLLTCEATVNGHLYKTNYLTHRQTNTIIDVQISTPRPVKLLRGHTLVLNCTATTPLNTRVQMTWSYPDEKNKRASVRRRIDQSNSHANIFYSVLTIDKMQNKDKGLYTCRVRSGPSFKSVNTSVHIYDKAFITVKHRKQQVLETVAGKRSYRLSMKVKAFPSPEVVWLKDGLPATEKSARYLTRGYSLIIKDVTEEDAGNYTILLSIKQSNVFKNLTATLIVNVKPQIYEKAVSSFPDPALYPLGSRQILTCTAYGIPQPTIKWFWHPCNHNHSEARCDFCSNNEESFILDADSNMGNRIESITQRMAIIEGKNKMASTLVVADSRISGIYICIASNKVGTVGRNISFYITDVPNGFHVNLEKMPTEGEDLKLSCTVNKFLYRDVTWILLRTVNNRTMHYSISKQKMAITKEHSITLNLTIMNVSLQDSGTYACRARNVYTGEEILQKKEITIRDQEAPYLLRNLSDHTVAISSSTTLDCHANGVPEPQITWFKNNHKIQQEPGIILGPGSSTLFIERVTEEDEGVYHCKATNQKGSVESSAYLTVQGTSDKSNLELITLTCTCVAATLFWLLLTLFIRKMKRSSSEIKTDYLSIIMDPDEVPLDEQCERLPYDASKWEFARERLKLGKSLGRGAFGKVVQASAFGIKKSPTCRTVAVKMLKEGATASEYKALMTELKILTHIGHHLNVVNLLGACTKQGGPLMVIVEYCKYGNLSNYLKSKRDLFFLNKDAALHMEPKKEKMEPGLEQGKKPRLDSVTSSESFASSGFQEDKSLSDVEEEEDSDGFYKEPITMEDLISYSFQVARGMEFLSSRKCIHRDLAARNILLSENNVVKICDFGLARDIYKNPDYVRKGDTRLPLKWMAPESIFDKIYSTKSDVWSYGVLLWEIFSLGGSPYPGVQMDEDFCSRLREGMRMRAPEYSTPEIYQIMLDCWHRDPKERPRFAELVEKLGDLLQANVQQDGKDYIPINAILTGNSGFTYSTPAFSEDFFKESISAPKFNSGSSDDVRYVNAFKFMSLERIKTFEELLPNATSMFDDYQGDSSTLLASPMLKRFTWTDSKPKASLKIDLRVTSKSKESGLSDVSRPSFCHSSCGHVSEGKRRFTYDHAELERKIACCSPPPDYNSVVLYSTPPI

Sequence of eIF-2-alpha kinase GCN2 (Homo sapiens) (Q9P2K8 whole entry, the tested form may be a part): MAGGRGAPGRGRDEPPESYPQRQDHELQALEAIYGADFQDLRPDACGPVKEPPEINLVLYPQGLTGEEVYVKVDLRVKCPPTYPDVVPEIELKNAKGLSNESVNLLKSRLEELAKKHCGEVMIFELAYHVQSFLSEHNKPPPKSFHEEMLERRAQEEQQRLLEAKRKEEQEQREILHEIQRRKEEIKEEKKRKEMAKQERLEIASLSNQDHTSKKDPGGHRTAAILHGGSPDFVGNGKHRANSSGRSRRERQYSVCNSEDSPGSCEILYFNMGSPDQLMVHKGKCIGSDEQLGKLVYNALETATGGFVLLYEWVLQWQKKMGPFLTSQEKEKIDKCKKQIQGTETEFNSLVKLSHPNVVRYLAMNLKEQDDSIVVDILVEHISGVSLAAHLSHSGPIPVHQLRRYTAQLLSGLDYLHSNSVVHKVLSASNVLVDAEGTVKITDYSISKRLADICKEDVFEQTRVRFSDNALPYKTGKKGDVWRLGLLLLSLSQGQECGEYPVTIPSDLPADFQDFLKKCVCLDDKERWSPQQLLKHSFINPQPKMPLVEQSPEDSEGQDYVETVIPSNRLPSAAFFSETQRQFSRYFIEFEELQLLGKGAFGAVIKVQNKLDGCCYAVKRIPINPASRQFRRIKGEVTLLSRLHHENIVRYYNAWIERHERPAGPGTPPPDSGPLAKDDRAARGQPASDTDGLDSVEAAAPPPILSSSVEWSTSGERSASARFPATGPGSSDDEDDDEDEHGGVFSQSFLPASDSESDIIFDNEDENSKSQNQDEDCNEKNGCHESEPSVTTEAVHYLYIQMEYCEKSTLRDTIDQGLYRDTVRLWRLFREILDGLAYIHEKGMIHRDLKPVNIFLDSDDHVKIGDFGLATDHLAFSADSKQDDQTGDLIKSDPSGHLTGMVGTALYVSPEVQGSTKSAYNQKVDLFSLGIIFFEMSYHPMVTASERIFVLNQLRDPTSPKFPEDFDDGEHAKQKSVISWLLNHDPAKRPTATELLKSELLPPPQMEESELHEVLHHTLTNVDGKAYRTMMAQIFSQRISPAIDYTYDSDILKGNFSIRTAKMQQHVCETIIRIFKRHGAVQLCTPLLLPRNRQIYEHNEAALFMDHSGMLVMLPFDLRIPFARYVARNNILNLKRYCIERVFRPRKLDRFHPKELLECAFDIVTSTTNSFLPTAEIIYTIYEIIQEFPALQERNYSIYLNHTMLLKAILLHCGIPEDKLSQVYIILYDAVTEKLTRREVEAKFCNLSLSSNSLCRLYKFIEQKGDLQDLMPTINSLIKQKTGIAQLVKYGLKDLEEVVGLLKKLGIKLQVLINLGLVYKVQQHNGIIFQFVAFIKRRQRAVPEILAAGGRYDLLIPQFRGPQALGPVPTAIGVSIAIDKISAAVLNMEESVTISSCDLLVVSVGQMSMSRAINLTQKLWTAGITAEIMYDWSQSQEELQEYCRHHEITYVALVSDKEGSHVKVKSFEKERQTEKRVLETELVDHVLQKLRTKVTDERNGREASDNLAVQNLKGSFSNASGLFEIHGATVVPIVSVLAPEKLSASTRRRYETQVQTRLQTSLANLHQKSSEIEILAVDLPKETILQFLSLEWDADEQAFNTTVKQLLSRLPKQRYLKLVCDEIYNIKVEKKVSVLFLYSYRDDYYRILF

Compound	inhibition [1]	residual activity [2]	inhibition [3]	inhibition [4]	percent of control [5]
CCN1CCN(Cc2ccc(NC(=O)c3ccc(C)c(/C=C/c4cnc5[nH]ccc5c4OC)c3)cc2C(F)(F)F)CC1	4.6%	100%			
CCN1CCN(Cc2ccc(NC(=O)c3ccc(C)c(Oc4ccnc5[nH]ccc45)c3)cc2C(F)(F)F)CC1			-0.6%	-3.4%	1.6%
